Measurements taken from patent publication US20170204426A1, “MODIFIED BRASSICA PLANTS WITH INCREASED SEED OIL CONTENT” (BROOKHAVEN SCIENCE ASSOCIATES, LLC, priority 2014, published 2017).

Experiments:
ATP-dependent PFK = assay: Allosteric effect of PEP on ATP-dependent PFK activity in oilseed rape embryo; format: biochemical, Brassica napus
[1] = tested on: PPi-PFKs of Thermoproteus tenax, Naegleria fowleri, Methylococcus capsulatus or Amycolatopsis methanolica; conditions: Reshetnikov et al. 2008; Alves et al.; cited from earlier work
AGPase = assay: Allosteric effect of 3-PGA on AGPase activity in oilseed rape embryo; format: biochemical, Brassica napus
Description: The intermediates PEP and 3-PGA are known to allosterically affect enzymatic activity of ATP-dependent PFK and AGPase, respectively.
[…] 500 μl of common extraction buffer [10% (v/v) glycerol, 0.25% (w/v) BSA, 0.1% (v/v) Triton X-100, 50 mM Hepes/KOH, pH 7.5, 10 mM MgCl2, 1 mM EDTA, 1 mM EGTA, 1 mM benzamidine, 1 mM ε-aminocapronic acid, 1 mM phenylmethylsulfonyl fluoride (PMSF), […], 1 mM dithiothreitol (DTT)] and c. 10 mg polyvinyl pyrrolidone. PMSF was added just before extraction. DTT was omitted when using peroxidase-based or MTT-based indicator reactions (MTT: methylthiazolyldiphenyl-tetrazolium bromide). A 96-head liquid handling robot (Evolution P3, Perkin Elmer, Wellesey, Mass., USA) was used to perform subsequent dilutions of these initial extracts and to load extracts on to 96-well micro plates. During this process micro plates were maintained at 4° C. using peltier cooled blocks. […] The concentration of the products of these stopped reactions (NAD+, NADH, NADPH or glycerol-3-phosphate) was then determined using cycling assays. […] Nitrate reductase and glutamine synthetase were determined using end point assays (Gibon et al, 2004, supra). […] After measuring PK activity at pH 8.0 and at pH 6.7, the plastidic and cytosolic activities were calculated accordingly.

Structure (SMILES)	effect on enzymatic activity of ATP-dependent PFK (ATP-dependent PFK)	inhibition of PPi-PFK by PEP [1]	effect on enzymatic activity of AGPase (AGPase)
C=C(OP(=O)(O)O)C(=O)O [PEP, phosphoenolpyruvate]	clear activity changes	not inhibited	–
O=C(O)[C@H](O)COP(=O)(O)O [3-PGA, 3-phosphoglycerate]	–	–	clear activity changes
